The values that follow are results of earlier work, collected in publication PMC4494773, “Design, synthesis, antiviral and cytotoxic evaluation of novel acyclic phosphonate nucleotide analogues with a 5,6-dihydro-1H-[1,2,3]triazolo[4,5-d]pyridazine-4,7-dione system” (Monatshefte Fur Chemie, 2014).

One data set concerns HIV-1. On the set-up: method as in PMID 12901908.
Data set [1] concerns viral helicase from West Nile Virus (WNV). On the set-up: method as in PMID 11959550.
The next data set has as its system viral helicase from HCV. On the set-up: method as in PMID 11959550.

As to `NC(=O)c1cn(C2CC(CCP(=O)(O)O)CC2O)nn1` (stereo not drawn) [compound 2], the “antiviral activity against HIV-1” value in the data set on HIV-1 was “displayed antiviral activity”.

For `O=c1[nH][nH]c(=O)c2c1ncn2C1OC(CO)C(O)C1O` (stereo not drawn) [compound 5], the “antiviral activity by inhibition of a viral helicase” value (in data set [1]; in the data set on viral helicase from HCV) was “exhibited antiviral activity by inhibition of a viral helicase” each time.

Turning to `NC(=O)c1nnn(C2CC(CO)CC2O)c1N` (stereo not drawn) [compound 1], the “antiviral activity against HIV-1” value in the data set on HIV-1 is given as “displayed antiviral activity”.

Take `COC1C(O)C(CO)OC1n1cnc2c(=O)[nH][nH]c(=O)c21` (stereo not drawn) [compound 6]: the “antiviral activity by inhibition of a viral helicase” value (in data set [1]; with viral helicase from HCV) was “exhibited antiviral activity by inhibition of a viral helicase” each time.
